From paper PMC5555576, “Selective small-chemical inhibitors of protein arginine methyltransferase 5 with anti-lung cancer activity” (PLoS ONE, 2017)

Experiments:
[1] = system: A549 cells; test: Cellular permeability and stability by HPLC of cell extracts; format: in vitro ADME; conditions: for decrease of concentration inside the cells: 20 μM for 2 h, within 10 h after removal; for concentration inside cells compared with the medium: 2 h; for cell permeability: 2 hr in medium with compound
Description: Waters 2695 HPLC System and a C18 column (Symmetry, 3.6 x 75 mm) were used. The column was equilibrated with 10% acetonitrile and eluated with a linear gradient from 10% acetonitrile to 100% acetonitrile in 60 min. Compounds were dissolved in 10% acetonitrile and the purchased compounds (ChemBridge) were used as the standards.
We then determined whether the identified compounds are cell-permeable. Lung cancer A549 cells were cultured in medium containing various concentrations of the respective compound for 2 hr. Cells were harvested and washed with PBS. The compounds were extracted with ethyl acetate from cells and analyzed by HPLC with a C18 column using the purchased compound as the standard. Compounds C2, C5, C9 and C11 are cell-permeable (Fig 6A), which is consistent with their tPSAs <140 angstroms square (Table 1). […] We even noticed that the compound C5 crystalized inside the cells.
A, The cellular permeability of identified compounds. Lung cancer A549 cells were cultured in the presence of various concentrations of compounds for 2h and the compound concentrations in the cell were determined by HPLC chromatography with a C18 column. B, The cellular stability of identified compounds. Lung cancer A549 cells were cultured in the presence of compounds (20 μM) for 2 h and then the medium was removed. Cells were washed with the medium and cultured for additional 5 or 10 h after the compounds were removed. The compound concentrations in the cell were determined by HPLC chromatography with a C18 column. […] A549 cells were grown in the presence of DMSO or compound C5, C9 or C11 (20 μM). Histones were purified and analyzed by SDS-PAGE stained with Commassie blue (lanes 1–4, bottom) or by Western blot with anti-symmetric dimethyl arginine antibody (SYM10) (lanes 1–4, top). B-Raf was immunoprecipitated with anti-B-Raf antibody from whole cell lysates and submitted for Western blot analysis with anti-B-Raf (lanes 5 and 6, bottom) or anti-symmetric dimethyl arginine (lanes 5 and 6, top) antibody.

[2] = system: arginine methylation in histone H2A, histone H4 and B-Raf in A549 cells; test: Western blot of symmetrical arginine dimethylation of PRMT5 substrates in cells; format: cell-based; conditions: 20 μM, SYM10 antibody
Description: Histones were purified as reported previously. Briefly, cells (1–5 x 10^6) or lung tumors (10–100 mg) were lysated using a glass dounce in 1 ml of 1x Passive Lysis Buffer (Promega) and nuclear pellets were collected by centrifugation at 3,000 rpm for 5 min at 4 °C. The supernatant was discard and the pellets were washed with 1 ml of 1x Passive Lysis Buffer. Nuclear pellets were resuspended in 0.4 ml of the buffer (10 mM Trs-HCl, pH7.9, 0.2 mM EDTA, 1 mM DTT, 20% glycerol, 0.42 M KCl) and incubate for 30 min on ice, and centrifuged at 12,000 rpm for 10 min at 4 °C. The supernatant (histones extract) was transferred to a new tube and histones were precipitated by 20% trichloroacetic acid.
Protein extracts or histones (20 μg) were subjected to 10% or 15% sodium dodecyl sulfate-polyacrylamide gel electrophoresis, respectively then transferred to Immobilon-P membranes (Millipore). The blots were then probed for 2 hours with the primary antibody at dilutions of 1:500 (anti-symmetrical dimethylated arginine, SYM10, EMD Millipore), 1:1,000 (anti-B Raf, ab65050, Abcam) or 1:1,000 (anti-PRMT5, Abcam). The blots were then incubated with a horseradish peroxide-conjugated secondary antibody (1:5,000; Fischer Scientific) for 1.5 h. Immunoreactive proteins were detected using an enhanced chemiluminescence detection system (GE Healthcare) per the manufacturer’s instructions. Protein concentrations were determined using the Bradford protein assay reagent (Bio-Rad).
A, The cellular permeability of identified compounds. Lung cancer A549 cells were cultured in the presence of various concentrations of compounds for 2h and the compound concentrations in the cell were determined by HPLC chromatography with a C18 column. B, The cellular stability of identified compounds. […] The compound concentrations in the cell were determined by HPLC chromatography with a C18 column. […] Histones were purified and analyzed by SDS-PAGE stained with Commassie blue (lanes 1–4, bottom) or by Western blot with anti-symmetric dimethyl arginine antibody (SYM10) (lanes 1–4, top). […]

[3] = system: PC14 cells; test: Cell growth by cell counting, PC14; format: cell-based; conditions: 2 days post treatment
Description: Lung cancer A549 (ATCC) and PC14 (ATCC) cells were cultured in minimum essential medium (Cellgro) with 10% (v/v) fetal bovine serum (FBS) (HyClone), 2% vitamins, 1% L-glutamine, 1% non-essential amino acids and 1% sodium pyruvate. For the treatment with identified compounds, cells (2, 000 cells/well) were seeded in 24-well plates in the medium containing 2% FBS. The fresh medium containing identified compounds was added 24 hours later. Cells were cultured for various times in a CO2 incubator and the cell numbers were counted. Each experiment was performed in triplicate.
A, Lung cancer A549 cells were cultured in the presence of various concentrations (μM) of identified compounds and growth inhibition was determined by cell counting at various time points. B, Lung cancer PC14 cells were cultured in the presence of DMSO or various concentrations of identified compounds and growth inhibition was determined by cell counting 2 days post the compound treatment. C, The serum concentrations of compound C9 after oral administration. Mice were sacrificed and blood samples were collected immediately before (0 h) and at 2, 4, 6 and 8h after compound administration.

[4] = system: A549 cells; test: Cell cycle distribution by flow cytometry; format: cell-based; conditions: 20 μM, 2 days
Description: Supplementary file pone.0181601.s002.tif: S2 Fig Identified compounds arrested cell cycle at the G1 phase. A549 cells were infected with the lentivirus expressing non-target (NT) or PRMT5 shRNA as described previously by us. A549 cells were grown in the presence of DMSO or 20 μM of the compound C5, C9 or C11 for 2 days. A, PRMT5 protein levels in A549 cells. Whole cell lysates were prepared and submitted for Western blot analysis with anti-PRMT5 (top) or anti-actin (bottom) antibody. B, Cell cycle distributions. Cells were harvested, washed with phosphate-buffered saline (PBS) and fixed in 70% ethanol at 4 °C overnight. Cells were collected and stained with propidium iodide (PI). The cell-cycle distributions were determined by flow cytometry analysis (BD Accuri^TM C6 Flow Cyometer). (TIF) Click here for additional data file.

[5] = system: A549 cells; test: BrdU incorporation assay; format: cell-based; conditions: 20 μM, 2 days
Description: A549 cells were infected with the lentivirus expressing NT or PRMT5 shRNA. A549 cells were grown in the presence of DMSO or compound C5, C9 or C11 (20 μM) for 2 days. A, Bromodeoxyuridine (BrdU) (BD Biosciences) incorporation assay. Cells were plated on a Chamber slide (BD falcon) and cultured in the presence of 10 μM BrdU for 4 h. The BrdU-positive cells (brown) were detected by immunostaining with the monoclonal anti-BrdU antibody (BD Biosciences) and observed under a microscope. B, Percentage of BrdU-positive cells in control, PRMT5-silencing or compound treated cells. The results represent the means of three independent experiments ± the standard deviation. ***, P<0.001. (TIF) Click here for additional data file.

[6] = system: CDK2 (Rb pT821) in A549 cells; test: Western blot of Rb phosphorylation at T821; format: cell-based; conditions: 20 μM, 4 h
From the text: (§1) The retinoblastoma protein (Rb) is phosphorylated by CKDs in cells.
(§2) (TIF) Click here for additional data file.

[7] = system: CDK4/6 (Rb pS811) in A549 cells; test: Western blot of Rb phosphorylation at S811; format: cell-based; conditions: 20 μM, 4 h
From the text: as §1, §2

Structure (SMILES) | decrease of concentration inside the cells [1] | concentration inside cells compared with the medium [1] | cell permeability [1] | arginine methylation in histone H2A, histone H4 and B-Raf [2] | PC14 cell growth inhibition [3] | cell cycle effect [4] | cellular proliferation (BrdU) [5] | accumulation inside cells [1] [fold] | Rb phosphorylation at the site T821 by CDK2 [6] | Rb phosphorylation at the site S811 by CDK4/6 [7]
CCn1c(=O)[nH]c2cc(C(=O)Nc3ccc(OC)cc3)ccc2c1=O [Compound C5] | about 2 folds | higher than those in the medium | cell-permeable | significantly inhibited | inhibited PC14 cell growth | arrested the cell cycle at the G1 phase | inhibited proliferation of lung cancer cells |  |  | 
COc1ccc(Nc2ncnc3c2cnn3Cc2ccc(C)cc2)cc1 [Compound C9] | about 2 folds | higher than those in the medium | cell-permeable | significantly inhibited | inhibited PC14 cell growth | arrested the cell cycle at the G1 phase | inhibited proliferation of lung cancer cells | 5 | failed to inhibit | failed to inhibit
Nc1cccc(Nc2ncnc3c2cnn3Cc2ccccc2)c1 [Compound C9a] |  |  |  |  |  |  |  |  | failed to inhibit | failed to inhibit
Cn1cc(C(c2ccc(O)c(O)c2O)c2cn(C)c3ccccc23)c2ccccc21 [Compound C11] | about 2 folds | higher than those in the medium | cell-permeable | significantly inhibited | inhibited PC14 cell growth | arrested the cell cycle at the G1 phase | inhibited proliferation of lung cancer cells |  |  | 
